Test system: rice
Assay: Low temperature assay on rice seedlings
Type: in vivo
Method: According to a low temperature assay, we measured parameters including plant height, number of leaf, area of leaf, number of tiller, weight of root at low temperature to completely determine effects of the natural brassinolide analogues on the resistance to low temperature of a plant.
The natural brassinolide analogues, BR1, BR2, BR3, BR4, BR5 and BR6, used herein, were those prepared by the method of Example 1. Respectively the analogues were dissolved into 95% (V/V) ethanol solution, and then diluted with pure water to 1 mg/L, 0.1 mg/L, 0.01 mg/L, 0.001 mg/L and 0.0001 mg/L. In addition, pure water was used as a control.
After rice seeds were disinfected by using 5% sodium hypochlorite solution treatment, they were rinsed with distilled water until their pH>7, placed into a petri dish in a dark incubator, and cultured by using water at 30° C.±2° C. for 9 days. Then respectively the nine-day-old etiolated seedlings of rice were immersed in the above solutions containing different concentrations of the natural brassinolide analogues or pure water, and cultured at the temperature of 1° C., 2° C., 3° C., 4° C. and 5° C. for 24 hr. The parameters including plant height, area of leaf and weight of root after 3, 6, 9 and 12 days and number of leaf and number of tiller after 12 days were measured.

CC(C)(O)CC[C@@H](O)[C@](C)(O)[C@H]1CC[C@@]2(O)[C@@H]3CC(=O)[C@@H]4C[C@@H](O)[C@@H](O)C[C@]4(C)[C@H]3CC[C@]12C [BR6]
Area of leaf (0.0001 mg/l, 1 °C, 3 days): 10 cm^2
Height (0.0001 mg/l, 1 °C, 3 days): 7.1 cm
Weight of root (0.0001 mg/l, 1 °C, 3 days): 2.8 g
Area of leaf (0.0001 mg/l, 1 °C, 6 days): 11.2 cm^2
Height (0.0001 mg/l, 1 °C, 6 days): 7.2 cm
Weight of root (0.0001 mg/l, 1 °C, 6 days): 3.1 g
Area of leaf (0.0001 mg/l, 1 °C, 9 days): 12.4 cm^2
Height (0.0001 mg/l, 1 °C, 9 days): 7.4 cm
Weight of root (0.0001 mg/l, 1 °C, 9 days): 3.5 g
Area of leaf (0.0001 mg/l, 1 °C, 12 days): 13 cm^2
Height (0.0001 mg/l, 1 °C, 12 days): 7.4 cm
Number of leaf (0.0001 mg/l, 1 °C, 12 days): 3
Number of tiller (0.0001 mg/l, 1 °C, 12 days): 3
Weight of root (0.0001 mg/l, 1 °C, 12 days): 3.9 g
Area of leaf (0.0001 mg/l, 2 °C, 3 days): 10.2 cm^2
Height (0.0001 mg/l, 2 °C, 3 days): 7.1 cm
Weight of root (0.0001 mg/l, 2 °C, 3 days): 2.8 g
Area of leaf (0.0001 mg/l, 2 °C, 6 days): 11.7 cm^2
Height (0.0001 mg/l, 2 °C, 6 days): 7.2 cm
Weight of root (0.0001 mg/l, 2 °C, 6 days): 3.0 g
Area of leaf (0.0001 mg/l, 2 °C, 9 days): 12.6 cm^2
Height (0.0001 mg/l, 2 °C, 9 days): 7.3 cm
Weight of root (0.0001 mg/l, 2 °C, 9 days): 3.2 g
Area of leaf (0.0001 mg/l, 2 °C, 12 days): 13 cm^2
Height (0.0001 mg/l, 2 °C, 12 days): 7.5 cm
Number of leaf (0.0001 mg/l, 2 °C, 12 days): 3
Number of tiller (0.0001 mg/l, 2 °C, 12 days): 3
Weight of root (0.0001 mg/l, 2 °C, 12 days): 3.9 g
Area of leaf (0.0001 mg/l, 3 °C, 3 days): 10.4 cm^2
Height (0.0001 mg/l, 3 °C, 3 days): 7.1 cm
Weight of root (0.0001 mg/l, 3 °C, 3 days): 2.5 g
Area of leaf (0.0001 mg/l, 3 °C, 6 days): 12 cm^2
Height (0.0001 mg/l, 3 °C, 6 days): 7.2 cm
Weight of root (0.0001 mg/l, 3 °C, 6 days): 2.6 g
Area of leaf (0.0001 mg/l, 3 °C, 9 days): 12.6 cm^2
Height (0.0001 mg/l, 3 °C, 9 days): 7.5 cm
Weight of root (0.0001 mg/l, 3 °C, 9 days): 2.9 g
Area of leaf (0.0001 mg/l, 3 °C, 12 days): 13.2 cm^2
Height (0.0001 mg/l, 3 °C, 12 days): 7.6 cm
Number of leaf (0.0001 mg/l, 3 °C, 12 days): 3
Number of tiller (0.0001 mg/l, 3 °C, 12 days): 2
Weight of root (0.0001 mg/l, 3 °C, 12 days): 2.9 g
Area of leaf (0.0001 mg/l, 4 °C, 3 days): 10.6 cm^2
Height (0.0001 mg/l, 4 °C, 3 days): 7.1 cm
Weight of root (0.0001 mg/l, 4 °C, 3 days): 2.5 g
Area of leaf (0.0001 mg/l, 4 °C, 6 days): 12.2 cm^2
Height (0.0001 mg/l, 4 °C, 6 days): 7.3 cm
Weight of root (0.0001 mg/l, 4 °C, 6 days): 2.6 g
Area of leaf (0.0001 mg/l, 4 °C, 9 days): 13 cm^2
Height (0.0001 mg/l, 4 °C, 9 days): 7.5 cm
Weight of root (0.0001 mg/l, 4 °C, 9 days): 2.8 g
Area of leaf (0.0001 mg/l, 4 °C, 12 days): 13.4 cm^2
Height (0.0001 mg/l, 4 °C, 12 days): 7.7 cm
Number of leaf (0.0001 mg/l, 4 °C, 12 days): 3
Number of tiller (0.0001 mg/l, 4 °C, 12 days): 2
Weight of root (0.0001 mg/l, 4 °C, 12 days): 2.9 g
Area of leaf (0.0001 mg/l, 5 °C, 3 days): 10.6 cm^2
Height (0.0001 mg/l, 5 °C, 3 days): 7.2 cm
Weight of root (0.0001 mg/l, 5 °C, 3 days): 2.6 g
Area of leaf (0.0001 mg/l, 5 °C, 6 days): 12.8 cm^2
Height (0.0001 mg/l, 5 °C, 6 days): 7.5 cm
Weight of root (0.0001 mg/l, 5 °C, 6 days): 2.7 g
Area of leaf (0.0001 mg/l, 5 °C, 9 days): 13.6 cm^2
Height (0.0001 mg/l, 5 °C, 9 days): 7.5 cm
Weight of root (0.0001 mg/l, 5 °C, 9 days): 2.9 g
Area of leaf (0.0001 mg/l, 5 °C, 12 days): 14 cm^2
Height (0.0001 mg/l, 5 °C, 12 days): 7.8 cm
Number of leaf (0.0001 mg/l, 5 °C, 12 days): 3
Number of tiller (0.0001 mg/l, 5 °C, 12 days): 2
Weight of root (0.0001 mg/l, 5 °C, 12 days): 3.0 g
Area of leaf (0.001 mg/l, 1 °C, 3 days): 10 cm^2
Height (0.001 mg/l, 1 °C, 3 days): 6.9 cm
Weight of root (0.001 mg/l, 1 °C, 3 days): 2.8 g
Area of leaf (0.001 mg/l, 1 °C, 6 days): 11.3 cm^2
Height (0.001 mg/l, 1 °C, 6 days): 7.1 cm
Weight of root (0.001 mg/l, 1 °C, 6 days): 3.1 g
Area of leaf (0.001 mg/l, 1 °C, 9 days): 12.6 cm^2
Height (0.001 mg/l, 1 °C, 9 days): 7.3 cm
Weight of root (0.001 mg/l, 1 °C, 9 days): 3.4 g
Area of leaf (0.001 mg/l, 1 °C, 12 days): 13 cm^2
Height (0.001 mg/l, 1 °C, 12 days): 7.3 cm
Number of leaf (0.001 mg/l, 1 °C, 12 days): 3
Number of tiller (0.001 mg/l, 1 °C, 12 days): 3
Weight of root (0.001 mg/l, 1 °C, 12 days): 3.9 g
Area of leaf (0.001 mg/l, 2 °C, 3 days): 10.3 cm^2
Height (0.001 mg/l, 2 °C, 3 days): 6.9 cm
Weight of root (0.001 mg/l, 2 °C, 3 days): 2.8 g
